Test results taken from patent publication US20170121683A1, “ARYL HYDROCARBON RECEPTOR DISRUPTION AND ENHANCEMENT” (priority 2015, published 2017).

Key:
Assay type in all cases: cell-based, human
[1] = test system: hESC-derived NK cells; assay: CD107a degranulation assay with K562 target cells; settings: Day 11+28, K562 targets at 2:1 effector:target ratio, 4 hours
[2] = test system: hESC-derived non-adherent hematopoietic progenitor cells; assay: Hematopoietic colony-forming unit (CFU) assay (Example 2); settings: cells harvested at Day 6+5, 14 days in Methocult, n=3
Source text: FIG. 9A. Non-adherent hematopoietic progenitor cells derived from hESCs differentiated in the presence of SR-1, TCDD, or DMSO controls were harvested at Day 6+5 and seeded at 50,000 cells/dish in a standard methylcellulose colony-forming unit assay (CFU). Colonies were counted for each treatment group following 2 weeks of culture and scored for the following morphological subsets: BFU-E: burst-forming unit-erythroid; CFU-E: colony-forming unit-erythroid; CFU-GM: colony-forming unit-granulocyte, macrophage, CFU-M: colony-forming unit-macrophage; CFU-GEMM: colony-forming unit-granulocyte, erythroid, macrophage, megakaryocyte. n=3, error bars represent SEM of the total number of colonies/50,000 cells seeded, *p<0.05 as assessed with one-way ANOVA+Tukey-Kramer multiple comparisons post-hoc test. FIG. 9B. Non-adherent hematopoietic progenitor cells derived from hESCs differentiated in the presence of SR-1, TCDD, or DMSO controls were harvested at Day 6+3, Day 6+6, and Day 6+9 time points and probed for gene expression by quantitative real-time PCR (qRT-PCR). […]
Day 6+5 spin-EB non-adherent fractions were resuspended in IMDM. […] Plates were incubated for 14 days and subsequently counted and phenotypically scored using standard criteria (Kaufman et al. Proc. Natl. Acad. Sci. U.S.A. 2001; 98(19):10716-21).

[3] = test system: H9 hESCs; assay: Hemato-endothelial differentiation of H9 hESCs as spin-EBs, flow cytometry (Example 1)
Description: H9 human embryonic stem cells (H9 hESCs; University of Wisconsin, Madison, Wis.) were adapted to passage as single cells using TrypLE (Invitrogen, Carlsbad, Calif.) as previously described (Ng et al. Nat. Protoc. 3, 768-76 (2008)). H9 hESCs were maintained on irradiated mouse embryonic fibroblasts in ES cell growth medium including Dulbecco's modified Eagle's medium (DMEM)/Ham's F-12 medium (F12) (Invitrogen) supplemented with 15% Knockout Serum Replacer (Invitrogen), 1 mM L-glutamine (Invitrogen), 0.1 mM β-mercaptoethanol (Sigma Aldrich, St. Louis, Mo.), 1% minimum essential medium nonessential amino acids (Invitrogen), 4 ng/mL basic fibroblast growth factor (R&D Systems Inc., Minneapolis, Minn.), and 1% penicillin-streptomycin (Invitrogen) incubated at 37° C. in a humidified atmosphere containing 5% CO2. Single-cell adapted hESCs were subjected to hemato-endothelial differentiation as spin embryoid bodies (“spin-EBs”), also previously described (Ng et al. Nat. Protoc. 3, 768-76 (2008); Knorr et al. Stem Cells Dev. 22, 1861-9 (2013); Ferrell et al., Stem Cells 33(4), 1130-41 (2015)). In brief, TrypLE-adapted hESCs were harvested are resuspended in bovine serum albumin polyvinyl alcohol essential lipids (BPEL) media (Ferrell et al. Stem Cells 33(4):1130-41 (2015)) supplemented with 20 ng/mL bone morphogenic protein-4 (R&D Systems), 20 ng/mL vascular endothelial growth factor (R&D Systems), and 40 ng/mL stem cell factor (R&D Systems) (hemato-endothelial induction media or Stage I mesodermal induction media). Cells were plated in a low-attachment 96-well plate (Thermo Scientific, Waltham, Mass.) at 3,000 cells per well and centrifuged at 1500 rpm for 5 minutes to create three-dimensionalized embryoid body aggregates. Following 6 days of incubation, EBs were transferred with a multichannel micropipette to 0.1% gelatinized 24-well plates (8 EBs/well) with BEL media (BPEL media minus polyvinyl alcohol) supplemented with 40 ng/mL vascular endothelial growth factor, 40 ng/mL stem cell factor, 30 ng/mL Interleukin-3 (Peprotech, Rocky Hill, N.J.), 30 ng/mL Interleukin-6 (Peprotech), and 30 ng/mL thrombopoietin (Peprotech) ([…] or Stage II media) to induce hemato-endothelial-specific differentiation. Depending on the treatment group, Stage II media was also supplemented with DMSO, 1 μM StemReginin-1 (SR-1) (Cellagen Technology, San Diego, Calif.) in DMSO or 10 nM 2,3,7,8-tetrachlorodibenzo-p-dioxin (TCDD) (Sigma Aldrich) in DMSO. EBs were cultured until the indicated time points and one-half media changes with fresh Stage II media and drugs were performed every three days. For EB harvesting, the media containing the non-adherent differentiated hematopoietic cells was set aside while the adherent cells were treated with 0.05% trypsin (Invitrogen) containing 2% chicken serum (Sigma Aldrich) for 8-10 minutes in a 37° C. water bath. Both non-adherent and adherent fractions were combined for subsequent analyses.
Harvested cells were incubated with PE-Cy7 CD34 (BD Biosciences, San Jose, Calif.) in conjunction with APC CD31, APC CD41a, APC CD43, or APC CD45 for 30 minutes at 4° C. in FACS buffer (DPBS containing 2% fetal bovine serum and 0.1% sodium azide). Dead cells were excluded using Sytox Blue dye (Invitrogen) prior to analysis. Cells were analyzed using an LSRII flow cytometer (BD Biosciences) and data were analyzed using FlowJo software (TreeStart, Ashland, Oreg.).

CC(C)n1cnc2c(NCCc3ccc(O)cc3)nc(-c3csc4ccccc34)nc21 [SR-1, StemReginin-1]
CD107a expression (percentage of CD107a+ cells) [1]: 58.1±0.67%
total number of colonies / 50,000 cells seeded [2]: 245.67±64.4 colonies
CD34+CD31+ hemato-endothelial cells ([3]; Day 9, 1 μM SR-1, n=3): 17.63%±1.25
expansion of CD34+CD45+ hematopoietic progenitor cells relative to DMSO-treated controls ([3]; Day 12, 1 μM SR-1): approximately two-fold expansion
CD34+CD45+ hematopoietic progenitor cells ([3]; Day 12, 1 μM SR-1, n=3): 16.35%±4.05

Clc1cc2c(cc1Cl)Oc1cc(Cl)c(Cl)cc1O2 [TCDD, 2,3,7,8-tetrachlorodibenzo-p-dioxin]
CD107a expression (percentage of CD107a+ cells) [1]: 36.8±2.1%
total number of colonies / 50,000 cells seeded [2]: 28.3±2.67 colonies
CD34+CD45+ progenitor cells ([3]; Day 15, 10 nM TCDD, n=3): 3.99%±0.80
CD34−CD43+ differentiated hematopoietic cells ([3]; Day 15, 10 nM TCDD, n=3): 84.5%±2.78
CD34−CD45+ differentiated hematopoietic cells ([3]; Day 15, 10 nM TCDD, n=3): 81.75%±1.75
